Test results as given in US20240123079A1 (Seagen Inc., priority 2021, published 2024).

Experiments:
[1] = In vivo cytokine assay, plasma of Renca tumor-bearing mice; parameters: species or system mouse; details: for IL1β in plasma / IL12p70 in plasma / IL-6 in plasma / IL-10 in plasma / IP10 in plasma / MCP-1 in plasma / IFNγ in plasma: Renca tumor-bearing mice, 1.48 mg/kg
Protocol: Cytokines were measured in mouse plasma harvested at 3, 6, 24, or 48 hours after treatment with compounds or ADCs using a Milliplex MAP mouse cytokine/chemokine magnetic bead panel assay kit (MCYTOMAG-70k custom 11-plex kit: MCP1, MIP1α, MIP1β, TNFα, IFNγ, IL-10, IL-12p70, IL-6, IL-1β, IP10, RANTES) and analyzed using a Luminex™ MAGPIX™ Instrument System. Values that were outside of the standard curve range (<3.2 or […]) were excluded from calculation of the mean values.

DEL = assay: Cancer cell direct cytotoxicity assay (CellTiter-Glo), DEL; format: cell-based; details: Homo sapiens, 96 h, free compound, read-out: Compound X50
Protocol: Bystander activity of ADCs was evaluated using Renca cancer cells and THP1-Dual™ cells (InvivoGen) which contain an IRF-Lucia luciferase reporter. Cells were cultured in RPMI-1640 (Gibco) with 10% heat-inactivated fetal bovine serum, Pen-Strep (100 U/ml-100 μg/ml, Gibco), HEPES (10 mM, Gibco), sodium pyruvate (1 mM, Gibco), MEM non-essential amino acids (1×, Gibco), GlutaMAX (1×, Gibco), and beta-mercaptoethanol (55 μM, Gibco). Renca cells were plated in a 96-well flat bottom tissue culture-treated clear polystyrene plate (Corning Costar #3596) at 50,000 cells per well in 100 μL. On the day following the initial plating, 50,000 THP1-Dual™ cells were added to each well with the indicated concentration of ADC in a total volume of 200 μL. Supernatant was harvested at 48 hours post addition of the THP1-Dual™ cells. To measure Lucia reporter signal, 10 μL of supernatant was combined with 40 μL of QUANTI-Luc™ Luminescence assay reagent (Invivogen PN: rep-qlc1) in a 96-well clear flat bottom tissue culture-treated black polystyrene plate (Corning Costar PN: 3603) and read on a Perkin Elmer Envision plate reader. In some experiments, HEK 293T cells engineered to express a murine protein typically expressed by immune cells (target antigen C— an immune cell antigen) were plated as above instead of Renca tumor cells. Cancer Cell Direct Cytotoxicity Assay
Cancer cells were counted and plated in 40 μL complete growth media in 384-well, white-walled tissue culture treated plates (Corning). Cell plates were incubated at 37° C. and with 5% CO2 overnight to allow the cells to equilibrate. Stock solutions containing ADCs or free drugs were serially diluted in RPMI-1640+20% fetal bovine serum (FBS). 10 μL of each concentration were then added to each cell plate in duplicate. Cells were then incubated at 37° C. and with 5% CO2 for 96 hours, upon which, the cell plates were removed from the incubator and allowed to cool to room temperature for 30 minutes prior to analysis. […] The luminescence of the samples was measured using an EnVision Multimode plate reader (Perkin Elmer, Waltham, MA). […]

SMILES: CCn1nc(C)cc1C(=O)Nc1nc2cc(C(N)=O)cc(O)c2n1C/C=C/Cn1c(NC(=O)c2cc(C)nn2CC)nc2cc(C(N)=O)cc(OC)c21 [Compound 1, (E)-1-(4-(5-carbamoyl-2-(1-ethyl-3-methyl-1H-pyrazole-5-carboxamido)-7-hydroxy-1H-benzo[d]imidazol-1-yl)but-2-en-1-yl)-2-(1-ethyl-3-methyl-1H-pyrazole-5-carboxamido)-7-methoxy-1H-benzo[d]imidazole-5-carboxamide]
- IL1β in plasma ([1]; 3 h): 0.7 pg/mL
- IL12p70 in plasma ([1]; 3 h): 174 pg/mL
- IL-6 in plasma ([1]; 3 h): 95.7 pg/mL
- IL-10 in plasma ([1]; 3 h): 48.8 pg/mL
- IP10 in plasma ([1]; 3 h): 703 pg/mL
- MCP-1 in plasma ([1]; 3 h): 168 pg/mL
- IFNγ in plasma ([1]; 6 h): 0.2 pg/mL
- IL1β in plasma ([1]; 6 h): 1.5 pg/mL
- IL12p70 in plasma ([1]; 6 h): < 3.2 pg/mL
- IL-6 in plasma ([1]; 6 h): 6.8 pg/mL
- IL-10 in plasma ([1]; 6 h): 0.8 pg/mL
- IP10 in plasma ([1]; 6 h): 3390 pg/mL
- MCP-1 in plasma ([1]; 6 h): 796 pg/mL
- IFNγ in plasma ([1]; 24 h): < 3.2 pg/mL
- IL1β in plasma ([1]; 24 h): 0.8 pg/mL
- IL12p70 in plasma ([1]; 24 h): 140 pg/mL
- IL-6 in plasma ([1]; 24 h): 13.5 pg/mL
- IL-10 in plasma ([1]; 24 h): 34.6 pg/mL
- IP10 in plasma ([1]; 24 h): 551 pg/mL
- systemic pro-inflammatory cytokine (IL-6 and TNF) production ([1]; plasma of tumor-bearing mice): induced very little pro-inflammatory cytokine (IL-6 and TNF) production
- IC50 (DEL): 2 nM
